Source: patent US20200016159A1, “N3-CYCLICALLY SUBSTITUTED THIENOURACILS AND USE THEREOF” (Bayer Aktiengesellschaft, priority 2016, published 2020)

Target: T1, human adenosine A2b receptor (Homo sapiens, UniProt P29275)
T1 sequence (P29275 1-332): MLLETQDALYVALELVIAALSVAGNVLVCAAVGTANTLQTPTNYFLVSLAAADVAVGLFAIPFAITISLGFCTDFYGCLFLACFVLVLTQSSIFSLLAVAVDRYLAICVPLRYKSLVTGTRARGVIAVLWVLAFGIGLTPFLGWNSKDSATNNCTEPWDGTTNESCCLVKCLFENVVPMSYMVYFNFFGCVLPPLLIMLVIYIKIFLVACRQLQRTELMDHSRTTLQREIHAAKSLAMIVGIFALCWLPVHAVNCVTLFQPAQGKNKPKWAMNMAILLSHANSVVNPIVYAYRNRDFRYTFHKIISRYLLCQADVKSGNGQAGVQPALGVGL
Assay: Cellular in vitro reporter gene test for A2b receptor activity (antagonism of NECA)
Assay type: cell-based
Parameters: expressed in transfected cells; host or cells: CHO-K1 (Chinese hamster ovary) with CRE-luciferase reporter
Settings: recombinant CHO-K1 cells, CRE-luciferase reporter, co-incubation with EC50 concentration of NECA, 3 hours
Procedure, shortened: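 CHO-K1 cells expressing recombinant human A2b receptor plus a CRE-driven firefly luciferase reporter. Compounds co-incubated with NECA at its same-day EC50 concentration; luminescence read 3 hours after NECA addition. IC50 values, sometimes means of several determinations rounded to two significant figures.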

| IC50 [nM] | Compound |
| --- | --- |
| 4.1 | Cc1c(CN2CCNC2=O)sc2c1c(=O)n([C@H]1C[C@@H]1C)c(=O)n2CC1CCO1 (stereo partly drawn) [Example 282, 5-Methyl-3-[(1S,2S)-2-methylcyclopropyl]-1-(oxetan-2-ylmethyl)-6-[(2-oxoimidazoliidin-1-yl)methyl]thieno[2,3-d]pyrimidine-2,4(1H,3H)-dione] |
| 10 | COCCn1c(=O)n(C2CC3(CCC3)C2)c(=O)c2c(C)c(CN3CCNC3=O)sc21 [Example 179, 1-(2-Methoxyethyl)-5-methyl-6-[(2-oxoimidazolidin-1-yl)methyl]-3-(spiro[3.3]hept-2-yl)thieno[2,3-d]pyrimidine-2,4(1H,3H)-dione] |
| 56 | Cc1c(Cn2cc[nH]c2=O)sc2c1c(=O)n(C1CC1)c(=O)n2CC1CCCO1 (single isomer, unassigned) [Example 48, 3-Cyclopropyl-5-methyl-6-[(2-oxo-2,3-dihydro-H-imidazol-1-yl)methyl]-1-(tetrahydrofuran-2-ylmethyl)thieno[2,3-d]pyrimidine-2,4(1H,3H)-dione] |
| 15 | Cc1c(CN2CCNC2=O)sc2c1c(=O)n(C1CC1C)c(=O)n2CCOC(F)(F)F (racemic) [Example 261, 5-Methyl-3-(2-methylcyclopropyl)-6-[(2-oxoimidazolidin-1-yl)methyl]-1-[2-(trifluoromethoxy)ethyl]thieno[2,3-d]pyrimidine-2,4(1H,3H)-dione] |
| 10 | COCCn1c(=O)n(C2CC(F)(F)C2)c(=O)c2c(C)c(CN3CCNC3=NC(=O)OC)sc21 [Example 127, Methyl [1-{[3-(3,3-difluorocyclobuty)-1-(2-methoxyethyl)-5-methyl-2,4-dioxo-1,2,3,4-tetrahydrothieno[2,3-d]pyrimidin-6-yl]methyl}imidazolidin-2-ylidene]carbamate] |
| 2.1 | Cc1c(CN2CCNC2=O)sc2c1c(=O)n(C1CC1C)c(=O)n2CCCC(F)(F)F (racemic) [Example 242, 5-Methyl-3-(2-methylcyclopropyl)-6-[(2-oxoimidazolidin-1-yl)methyl]-1-(4,4,4-trifluorobutyl)thieno[2,3-d]pyrimidine-2,4(1H,3H)-dione] |
| 40 | Cc1c(Cn2nc[nH]c2=O)sc2c1c(=O)n(C1CC1)c(=O)n2CCSC(F)(F)F [Example 213, 3-Cyclopropyl-5-methyl-6-[(5-oxo-4,5-dihydro-1H-1,2,4-triazol-1-yl)methyl]-1-{2-[(trifluoromethyl)sulfanyl]ethyl}thieno[2,3-d]pyrimidine-2,4(1H,3H)-dione] |
| 1.1 | Cc1c(CN2CCNC2=O)sc2c1c(=O)n(C1CC1C)c(=O)n2CCOC(F)(F)F (single isomer, unassigned) [Example 263, 5-Methyl-3-(2-methylcyclopropyl)-6-[(2-oxoimidazolidin-1-yl)methyl]-1-[2-(trifluoromethoxy)ethyl]thieno[2,3-d]pyrimidine-2,4(1H,3H)-dione] |
| 100 | Cc1c(Cn2nc[nH]c2=O)sc2c1c(=O)n(C1CCCC1)c(=O)n2CCC(F)(F)F [Example 188, 3-Cyclopentyl-5-methyl-6-[(5-oxo-4,5-dihydro-1H-1,2,4-triazol-1-yl)methyl]-1-(3,3,3-trifluoropropyl)thieno[2,3-d]pyrimidine-2,4(1H,3H)-dione] |
| 20 | Cc1c(CN2CCNC2=O)sc2c1c(=O)n(C1CC1C)c(=O)n2CCCF (single isomer, unassigned) [Example 91, 1-(3-Fluoropropyl)-5-methyl-3-(2-methylcyclopropyl)-6-[(2-oxoimidazolidin-1-yl)methyl]thieno[2,3-d]pyrimidine-2,4(1H,3H)-dione] |
| 33 | COCCn1c(=O)n(C2CC(F)(F)C2)c(=O)c2c(C)c(CN3CCNC3=O)sc21 [Example 125, 3-(3,3-Difluorocyclobutyl)-1-(2-methoxyethyl)-5-methyl-6-[(2-oxoimidazolidin-1-yl)methyl]thieno[2,3-d]pyrimidine-2,4(1H,3H)-dione] |
